The text below walks through data of EP2982680B1, “PROTAMINE PEPTIDOMIMETIC, AND PHARMACEUTICALLY ACCEPTABLE SALTS AND USE THEREOF” (Academy of Military Medical Sciences, priority 2013, dated 2014).

The conditions of series [1]: amino acid; cited from earlier work.
The nature of series [2]: Water solubility of synthesized peptides.
Another series deals with heparin. The series is described as follows: Antagonism of protamine-like peptides against heparin anticoagulation in vitro (heparin neutralization, rabbit whole blood clotting). Also noted: species or system New Zealand rabbits. Conditions: for Amount of neutralized heparin (U/mg) Mean ± SD: average from five tests; for Amount of neutralized heparin (U/mg) Mean ± SD / Clotting time / Amount of neutralized heparin (U/mg) 1 / Amount of neutralized heparin (U/mg) 2 / Amount of neutralized heparin (U/mg) 3 / Amount of neutralized heparin (U/mg) 4 / Amount of neutralized heparin (U/mg) 5: rabbit whole blood added with heparin; for I (Anti-heparin index): concentration of polypeptide/1 unit of heparin, lower index = better antagonism; for Clotting time: 37 °C, blank control 10.62±0.49; for Amount of neutralized heparin (U/mg) 1: repeat 1 of 5; for Amount of neutralized heparin (U/mg) 1 / Amount of neutralized heparin (U/mg) 2 / Amount of neutralized heparin (U/mg) 3 / Amount of neutralized heparin (U/mg) 4 / Amount of neutralized heparin (U/mg) 5: test sample 1 mg per mL; for Amount of neutralized heparin (U/mg) 2: repeat 2 of 5; for Amount of neutralized heparin (U/mg) 3: repeat 3 of 5; for Amount of neutralized heparin (U/mg) 4: repeat 4 of 5; for Amount of neutralized heparin (U/mg) 5: repeat 5 of 5. From the text:
Reference standard of heparin was exactly weighed and then dissolved into several solutions with different concentrations by adding 0.9% sodium chloride solution according to the marked potency. The increment of heparin units per mL between two solutions having adjacent concentrations should be similar with no more than five units.
The test sample was the protamine-like peptide. If the test sample was in a powder form, it was accurately weighed on the basis of dry sample. Then, a solution of 0.9% sodium chloride was added thereto to provide a solution containing 1 mg of test sample per mL.
Eight small dry clean teat tubes with the same diameter (0.8 × 3.8 cm) were picked. Tube 1 and Tube 8 were used as the blank control into which 0.2 mL of 0.9% sodium chloride solution was added. Tube 2 to Tube 7 were used as the ones with test samples into each of which 0.1 ml of test solution was added together with 0.1 ml of heparin standard dilution having one concentration mentioned above. The mixture was well mixed immediately. An appropriate amount (0.8 ml) of whole blood freshly drawn from rabbits was added into these eight test tubes described above and then well mixed immediately to avoid generation of bubbles. Timing began at that time and the test tubes were all placed in a thermostatic water bath at 37 ± 0.5 °C. The interval between blood sampling and tube incubation in the thermostatic water bath should not be longer than two minutes. If the plasma was used, then 0.7 mL of plasma was added to each of the test tubes described above and then the test tubes were placed into a thermostatic water bath at 37 ± 0.5 °C to warm up for 5 to 10 minutes. Then, into each test tube, 0.1 mL of 1% calcium chloride solution was added and immediately mixed to avoid generation of bubbles. At that time, timing began. The test tubes were observed and the time until coagulation was recorded.
The clotting time in one control tube should not be more than 1.35 times longer than that in the other control tube. Among test tubes where the clotting time was no longer than 150% of the average coagulating time in two control tubes, the tube with the highest concentration of heparin was used as the endpoint tube.
The test was repeated for five times. The concentration of heparin in the endpoint tube was measured in all five tests, and the deviation was not allowed to be higher than 10 units. The average from five tests was deemed as the number of units of the heparin neutralized by 1 mg of the test sample (dry product) (the amount of neutralized heparin).
The anticoagulant time of heparin, i.e. the clotting time from the addition of the series of protamine-like peptides, were recorded where the clotting time in tubes with plasma but not heparin was considered as the control clotting time. The average value in each coagulation test was calculated, and ratio of the concentration in nmol of the added potamine-like peptide to 1 IU of neutralized heparin was regarded as the anti-heparin index (I) of the protamine-like peptide. Anti-heparin index = concentration of polypeptide/1 unit of heparin (nmol/U). [formula]

Where a SMILES comes first, the peptide text is derived from it. Where no end group is shown, it is not given here.

For the compound `N=C(N)NCCC[C@H](N)C(=O)O` [Arginine], in series [1], the “isoelectric point (pI)” value was 10.76.
Consider `N[C@@H](Cc1c[nH]cn1)C(=O)O` [Histidine], for which the “isoelectric point (pI)” value in series [1] is 7.59.
`NCCCC[C@H](N)C(=O)O` [Lysine]: in series [1], the “isoelectric point (pI)” value is on record as 9.74.
In the case of `N=C(N)NCCC[C@H](NC(=O)[C@H](CCCNC(=N)N)NC(=O)[C@@H](N)CCCNC(=N)N)C(=O)O` [R3, (R)3] (H-Arg-Arg-Arg-OH), in series [2], the water solubility entry is recorded as “good water solubility”.
The same measure, in the same setting: then `N=C(N)NCCC[C@H](NC(=O)[C@H](CCCNC(=N)N)NC(=O)[C@H](CCCNC(=N)N)NC(=O)[C@H](CCCNC(=N)N)NC(=O)[C@H](CCCNC(=N)N)NC(=O)[C@H](CCCNC(=N)N)NC(=O)[C@@H](N)CCCNC(=N)N)C(=O)O` [R7, (R)7], with “good water solubility”; and `N=C(N)NCCC[C@H](NC(=O)[C@H](CCCNC(=N)N)NC(=O)[C@H](CCCNC(=N)N)NC(=O)[C@H](CCCNC(=N)N)NC(=O)[C@H](Cc1c[nH]cn1)NC(=O)[C@H](CCCNC(=N)N)NC(=O)[C@H](CCCNC(=N)N)NC(=O)[C@H](CCCNC(=N)N)NC(=O)[C@H](CCCNC(=N)N)NC(=O)[C@H](CCCNC(=N)N)NC(=O)[C@H](CCCNC(=N)N)NC(=O)[C@H](CCCNC(=N)N)NC(=O)[C@H](CCCNC(=N)N)NC(=O)[C@H](CCCNC(=N)N)NC(=O)[C@@H](N)CCCNC(=N)N)C(=O)O` [R15-5], with “good water solubility”.
For the compound KKKKKKKKKKKKKKK [K15, (K)15], the water solubility entry in series [2] was “good water solubility”.
On the same count and under the same terms, under RRRRR [R5, (R)5] stands “good water solubility”.
Turning to “RRRRRRHRRRRRRRR [R15-8, R15-H, H in the middle]”, the water solubility result in series [2] was “good water solubility”. Also, in the series on heparin, the “Amount of neutralized heparin (U/mg) Mean ± SD” value stood at 108.4±1.32 U/mg, the “I (Anti-heparin index)” value was 3.93 nmol/U, the “Clotting time” value turned out to be 14.35 ± 0.38 min and the “Amount of neutralized heparin (U/mg) 1” value was found to be 110 U/mg. Further, in the series on heparin, the “Amount of neutralized heparin (U/mg) 2” value is 105 U/mg, the “Amount of neutralized heparin (U/mg) 3” value turned out to be 105 U/mg, the “Amount of neutralized heparin (U/mg) 4” value was 112 U/mg and the “Amount of neutralized heparin (U/mg) 5” value came to 110 U/mg.
“RRRRRRRRRRRRRHR [R15-2, R15-H, H off-center]”: in series [2], the water solubility result is on record as “good water solubility”. Besides, in the series on heparin, the “Amount of neutralized heparin (U/mg) Mean ± SD” value is recorded as 110±1.342 U/mg, the “I (Anti-heparin index)” value is recorded as 4.66 nmol/U, the “Clotting time” value stood at 13.35 ± 0.56 min and the “Amount of neutralized heparin (U/mg) 1” value stood at 110 U/mg. In the series on heparin, the “Amount of neutralized heparin (U/mg) 2” value was found to be 113 U/mg, the “Amount of neutralized heparin (U/mg) 3” value was 110 U/mg, the “Amount of neutralized heparin (U/mg) 4” value stood at 110 U/mg and the “Amount of neutralized heparin (U/mg) 5” value is 110 U/mg.
As for RRRRRRRRRRRRRRRRRRRR [R20, (R)20], the water solubility result in series [2] was “good water solubility”.
